The values below come from paper PMC6394301, “Evaluation of the anticancer potential of a sulphonamide carbonic anhydrase IX inhibitor on cervical cancer cells” (Journal of Enzyme Inhibition and Medicinal Chemistry, 2019).

Usually Ki stands for the dissociation constant of the complex between target and ligand, obtained from inhibition or displacement. What is called IC50 is the midpoint of a concentration-inhibition curve. A high value points to weaker potency in that assay. The term viability denotes a per cent measure of how many cells are alive, often set against a control.

The test system of data set [1] is HeLa cells. The data set can be described thus: Intracellular total oxidant status (TOS). It is filed as cell-based, human. On the procedure: The amount of cellular TOS was measured using an automated colourimetric reading process advanced by Erel[26]. In this method, the oxidation reaction is increased by the presence of excess glycerol in the reaction medium. Ferric ion forms a coloured complex with chromogen orange in an acidic environment. The spectrophotometrically measurable colour intensity is concerned to the whole level of oxidant molecules existent in the specimen. The assay is calibrated with H2O2, and the results are expressed in terms of micromolar H2O2 per mg protein (μmol H2O2 Equiv./mg protein).

The target in another data set is CA-IX. To be noted: read-out: Ki value of CA-IX; cited from earlier work.
Data set [2] deals with HeLa cells. The data set can be described thus: WST-1 cell viability assay, HeLa. The format is cell-based, human. To be noted: for IC50: WST-1. As to the method:
(§1) Since it is an unstable amino acid, the medium was supplemented with L-glutamine immediately prior.
(§2) WST-1 Cell Proliferation test, a product of the Roche Company is a colourimetric assay based on the cleavage of a tetrazolium salt by mitochondrial dehydrogenases to generate formazan in living cells. This assay is simple because only 10 μL of WST-1 reactant is added to 100 μL media on a 96-well plate. The cells were counted with a haemocytometer immediately before the subsequent procedures. The HeLa and PNT1A cells were used for seeding, with 5 × 10^3 cells per well, and then incubated overnight in a humidified atmosphere (37 °C with 5% CO2).
(§3) The next day, WST-1 is added to cells treated with S-1 as a cytotoxic reagent and the incubation is continued for an additional 1−2 h in a humidified atmosphere. One of the advantages of the WST-1 test is that colour change (yellow) can be seen with the naked eye.
(§4) After incubation, the plate was shaken well for 1 min. The absorbance is then measured at 450 nm versus a 650 nm reference by using a plate reader (M5, Spectra MAX) and SoftMax Pro software from Molecular Devices to compare experimental samples to controls.
(§5) IC50 is a measure used to estimate the potency of a material that inhibits a specific biological or biochemical function.
We determined the cell viability of CC cell line HeLa grown in 96-well plates for 24, 48, 72 h and treated with increasing concentrations (0, 2.5, 5, 10, 25, 50, 100, 200 μM) of S-1. Cell viability was evaluated with colourimetric WST-1 assay as described previously tested on the splitting of the tetrazolium salt by mitochondria dehydrogenases in viable cell. […] The number of viable cells was then quantified using trypan blue exclusion.
(Tetrazolium dyes change colour on reduction, which living cells bring about.)

Data set [3] relates to HeLa cells. Briefly: Oxidative stress index (OSI). The format is cell-based, human. On the procedure:
Percentage of TOS to TAS amount is taken into account in order to determine the oxidative stress index (OSI)[27]. Oxidative stress index was determined according to the equation outlined below:
OSI = (TOS (μ mol H2O2 equiv/g))/(TAS (μ mol Trolox equiv/g)) × 10

A further data set deals with PNT1-A cells. The data set can be described thus: WST-1 cell viability assay, PNT1-A. It is filed as cell-based, human. As to conditions: PNT1-A 24 h. On the procedure: as §1, §2, §3, §4, §5
Data set [4] can be described thus: Stability of the imine bond in the assay medium. It is filed as physicochemical.
The test system of data set [5] is HeLa cells. The data set can be described thus: Intracellular total antioxidant status (TAS). The format is cell-based, human. To be noted: positive control group. As to the method: The cellular TAS amount was determined using a new colourimetric assay method, which was improved by Erel[25]. This process is withstanding on the bleaching of the ostensible colour of the 2,2′-azino-bis [3-ethylbenzothiazoline-6-sulfonic acid] (ABTS) radical cation via the action of antioxidants. Upon the addition of a sample, the oxidative reactions initiated by the hydroxyl radicals present in the reaction mixture are inhibited by the antioxidant components of the lysate, preventing colour change and thus providing an effective measure of the TAS value of the lysate. The precision of this test has high accuracy (less than 3% error rate). Analysis results were expressed as mmol Trolox equiv/mg protein.

Take `NS(=O)(=O)c1ccc(N=Cc2cc(Cl)cc(Cl)c2O)cc1` [S-1, 4-[(3,5-Dichloro-2-hydroxybenzylidene)amino]benzenesulfonamide]: the “TOS level compared with Cisplatin” value with HeLa cells [1] (doses 50, 100 µM) is on record as “nearly same effect as Cisplatin”. Further, the inhibitory constant (Ki) on CA-IX was 0.0356 µM. The IC50 in the data set with HeLa cells [2] (Homo sapiens, HeLa 24 h) amounted to 25.2 µM; in the data set with HeLa cells [2] (Homo sapiens, HeLa 48 h), 42.9 µM; in the data set with HeLa cells [2] (Homo sapiens, HeLa 72 h), 84.1 µM; with PNT1-A cells (Homo sapiens, PNT1A), 198 µM. Also, the viability at 200 µM in the data set on HeLa cells [2] (Homo sapiens, HeLa, 200 μM, 48 h incubated, read-out: greatest viability loss) is 5.5%. For the same compound, the “OSI value compared with Cisplatin” value with HeLa cells [3] (100 μM concentration) was “too close to the level of Cisplatin”. The “stability in the assay medium” value in data set [4] is given as “stable”.

Consider `N.N.[Cl][Pt][Cl]` [Cisplatin, cisplatin, reference compound], for which, in the data set on HeLa cells [1] (positive control group), the TOS level was 11.49 μmol H2O2 Equiv./mg protein. For the same compound, the IC50 worked out at 28.9 µM in the data set on HeLa cells [2] (HeLa 24 h), 7.6 µM with HeLa cells [2] (HeLa 48 h), 6.1 µM in the data set with HeLa cells [2] (HeLa 72 h) and 13.4 µM in the data set on PNT1-A cells. In addition, the TAS value in the data set on HeLa cells [5] is 0.67 mmol Trolox equiv/mg protein. Further, the OSI value in the data set on HeLa cells [3] (positive control, from TOS and TAS) stood at 1.72.
